The target in this assay is α1β1γδ nAChR (Homo sapiens, UniProt P02708+P07510+P11230+Q07001). The assay is described as follows: cell-based. It is filed as cell-based.

Residues, ends and D or L forms follow the SMILES beside them.

For orientation: IC50 means the concentration at which inhibition is half-maximal. The low end stands for greater potency, the high end for weaker potency.

Chain of α1β1γδ nAChR (P02708 21-457 limits assumed): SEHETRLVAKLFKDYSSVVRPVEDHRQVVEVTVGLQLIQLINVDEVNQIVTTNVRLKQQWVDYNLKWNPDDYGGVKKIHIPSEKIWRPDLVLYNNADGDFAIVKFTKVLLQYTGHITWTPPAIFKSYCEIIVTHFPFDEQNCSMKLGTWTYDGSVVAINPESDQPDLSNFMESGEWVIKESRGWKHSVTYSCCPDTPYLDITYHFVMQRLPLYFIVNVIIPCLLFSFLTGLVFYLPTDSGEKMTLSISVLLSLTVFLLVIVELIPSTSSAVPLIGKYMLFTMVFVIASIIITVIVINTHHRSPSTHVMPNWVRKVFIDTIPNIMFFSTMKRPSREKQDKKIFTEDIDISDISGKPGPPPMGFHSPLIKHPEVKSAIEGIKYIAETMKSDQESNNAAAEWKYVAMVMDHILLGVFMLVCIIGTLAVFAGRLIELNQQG
Chain of α1β1γδ nAChR (P11230 24-501 partner limits assumed): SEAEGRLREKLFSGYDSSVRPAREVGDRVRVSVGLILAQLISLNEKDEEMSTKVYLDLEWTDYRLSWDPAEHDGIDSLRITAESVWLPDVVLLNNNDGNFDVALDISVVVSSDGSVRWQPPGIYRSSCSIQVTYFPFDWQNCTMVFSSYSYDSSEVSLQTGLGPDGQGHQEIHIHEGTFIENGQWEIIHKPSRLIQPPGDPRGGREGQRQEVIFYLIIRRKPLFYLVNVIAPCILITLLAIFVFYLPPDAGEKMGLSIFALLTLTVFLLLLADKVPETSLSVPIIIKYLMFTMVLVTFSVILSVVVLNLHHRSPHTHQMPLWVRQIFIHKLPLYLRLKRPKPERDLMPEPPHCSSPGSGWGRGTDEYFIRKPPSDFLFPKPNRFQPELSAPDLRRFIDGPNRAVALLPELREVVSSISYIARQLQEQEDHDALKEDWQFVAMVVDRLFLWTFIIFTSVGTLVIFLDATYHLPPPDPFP
Chain of α1β1γδ nAChR (P07510 23-517 limits assumed): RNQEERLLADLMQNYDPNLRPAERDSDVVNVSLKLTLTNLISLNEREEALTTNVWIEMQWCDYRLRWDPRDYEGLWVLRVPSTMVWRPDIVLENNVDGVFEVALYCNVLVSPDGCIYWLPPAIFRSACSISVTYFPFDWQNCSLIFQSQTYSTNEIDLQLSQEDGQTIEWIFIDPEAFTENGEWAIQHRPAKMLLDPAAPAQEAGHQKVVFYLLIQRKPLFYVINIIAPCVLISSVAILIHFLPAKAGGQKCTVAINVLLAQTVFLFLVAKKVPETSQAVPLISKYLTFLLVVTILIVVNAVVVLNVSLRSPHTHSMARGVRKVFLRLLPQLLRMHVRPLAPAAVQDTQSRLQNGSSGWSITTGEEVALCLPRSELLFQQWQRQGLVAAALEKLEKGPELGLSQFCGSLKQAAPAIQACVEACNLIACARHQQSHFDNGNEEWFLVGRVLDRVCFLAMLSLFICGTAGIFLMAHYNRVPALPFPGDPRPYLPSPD
Chain of α1β1γδ nAChR (Q07001 22-517 limits assumed): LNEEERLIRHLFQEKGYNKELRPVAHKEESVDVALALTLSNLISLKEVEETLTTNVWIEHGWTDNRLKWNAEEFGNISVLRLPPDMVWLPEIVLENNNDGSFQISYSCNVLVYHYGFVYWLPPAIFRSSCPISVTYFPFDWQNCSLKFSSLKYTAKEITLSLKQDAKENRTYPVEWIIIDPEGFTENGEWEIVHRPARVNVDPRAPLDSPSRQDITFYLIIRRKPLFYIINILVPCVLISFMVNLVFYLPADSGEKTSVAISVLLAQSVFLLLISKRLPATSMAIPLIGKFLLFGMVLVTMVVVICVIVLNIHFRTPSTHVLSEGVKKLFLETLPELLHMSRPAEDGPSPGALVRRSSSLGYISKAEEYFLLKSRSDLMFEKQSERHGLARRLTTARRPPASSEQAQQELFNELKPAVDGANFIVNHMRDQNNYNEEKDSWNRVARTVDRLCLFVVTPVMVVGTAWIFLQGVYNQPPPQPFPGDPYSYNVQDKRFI

Consider `CSCC[C@@H]1NC(=O)[C@@H]2CSSC[C@H](NC(=O)[C@H](CCSC)NC(=O)[C@@H](N)CC(=O)O)C(=O)N[C@@H](CSSC[C@@H](C(N)=O)NC(=O)[C@H](CC(N)=O)NC(=O)[C@H](Cc3ccccc3)NC(=O)[C@H](Cc3c[nH]cn3)NC(=O)[C@H](CC(N)=O)NC1=O)C(=O)N[C@@H](Cc1c[nH]cn1)C(=O)N1CCC[C@H]1C(=O)N[C@@H](C)C(=O)N2` [MilIA] (HELM PEPTIDE1{D.M.C.C.H.P.A.C.M.N.H.F.N.C.[am]}$PEPTIDE1,PEPTIDE1,3:R3-8:R3|PEPTIDE1,PEPTIDE1,4:R3-14:R3$$$V2.0), for which the “inhibition of the ACh-evoked current amplitude, α1β1γδ” value is listed as 20%. Also, the IC50 (SEM) is 13.1 µM.
